Earlier results on one compound are cited in patent US9072782B2, “Gadolinium complex, method for preparing same, and MRI contrast agent comprising same” (CATHLOIC UNIVERSITY INDUSTRY ACADEMIC COOPERATION FOUNDATION, priority 2009, dated 2015).

For data set [1] the following is noted: Hiroki Yoshikawa et al., Gazoshindan 1986.
The conditions of data set [2]: prior DTPA-Gd.

As for `O=C([O-])CN(CCN(CC(=O)[O-])CC(=O)O)CCN(CC(=O)[O-])CC(=O)O.[Gd+3]` [DTPA-Gd], the half-life result in data set [1] was “about 14 minutes”. In addition, in data set [2], the “time taken to be washed out from tissue” value is on record as “about 30 minutes”.
